Here are results for one compound from article PMC9138505, “Small Molecule 20S Proteasome Enhancer Regulates MYC Protein Stability and Exhibits Antitumor Activity in Multiple Myeloma” (Biomedicines, 2022).

For series [1], the system named is RPMI-8226, L363 and H929 cells. Description: Assessment of apoptosis, Caspase-Glo 3/7 assay. Conditions: all three MM cell lines, 24 h (Figure S1). The format is cell-based, human.
Method: Apoptosis was evaluated with the Caspase-Glo 3/7 assay kit (Promega; Madison, WI, USA) according to the manufacturer’s instructions. […] Staurosporine (81590, Cayman), an apoptosis inducer, was used as a positive control at 10 μM concentration for 3 h of incubation. After the incubation, the caspase reagent was added to the cells and incubated at 37 °C for 30 min. The luminescent signal was detected by the EnVision plate reader (PerkinElmer; Waltham, MA, USA) and the data were analyzed by Graph Pad Prism (9.2.0, Graph Pad Software Inc., San Diego, CA, USA).
Another series deals with L363 cells. Description: Cell viability, CellTiter-Glo, 72 h. The format is cell-based. Conditions: Homo sapiens, L-363; L363, 72 h. As for the experimental part: (§1) RPMI-8226, L363 and NCI-H929 cells were obtained from ATCC (Manassas, VA, USA) and were maintained in RPMI medium supplemented with 10% fetal bovine serum, and 100 U/mL penicillin/streptomycin, at 37 °C with 5% CO2. DMSO was used as the compound vehicle or vehicle control at a 0.1% final concentration for both cell culture and enzyme assay.
(§2) Error bars represent SD for triplicate wells.
(ATP-based viability assays read luminescence as a measure of living cells.)

For a further series, the system named is NCI-H929 cells. The experiment in a line: Cell viability, CellTiter-Glo, 72 h. Format: cell-based. Conditions: Homo sapiens; NCI-H929, 72 h; CI by 3-parameter curve. On the procedure:
as §1, §2

Series [2] can be described thus: Pharmacokinetic assessment in CD-1 mice. The format is in vivo. Particulars: for Cmax / Tmax: po, 100 mg/kg. On the procedure: The PK study was carried out with CD-1 mice (males, 6–8 weeks of age, n = 3 per treatment group) weighing between 24.9 g to 33.7 g immediately prior to dosing. TCH-165 (100 mg/kg) was administered by oral gavage, as a homogeneous suspension in a 3:7 (v/v) propylene glycol: 5% dextrose as a vehicle. A second dose of 100 mg/kg TCH-165 was administered approximately 8 h post-initial gavage. Blood was collected at 0.5 h, 1 h, 2 h, 4 h, 8 h, 9 h, 10 h, 12 h, and 16 h post-initial gavage in lithium heparin tubes. Plasma was separated by centrifugation and analyzed using mass spectrometry.

A short description of series [3]: Pharmacokinetic assessment in dogs. The format is in vivo. Conditions: male, beagle, dog. On the procedure:
(§3) Adult beagle dogs (male, 12 months of age, n = 3), weighing approximately 10 kg, received a […] of the test compound at 500 mg bid delivered in capsule form. Blood (approximately 2.5 mL) was collected into lithium heparin tubes at 0, 1 h, 2 h, 4 h, 8 h, and 24 h post-day 1 and post-day 5 dose for PK assessment using mass spectrometry. Blood (approximately 2 mL) was also collected and divided into EDTA and standard clot tubes on day 6 post-dose for determination of CBC and clinical chemistry parameters, respectively, and analyzed at the Michigan State University Veterinary Diagnostic Laboratory. Clinical observations were conducted daily on non-dosing days and twice on dosing days.

Series [4] is described as follows: Tolerance in dogs (clinical observations, body weight, CBC, clinical chemistry). The format is in vivo, beagle dogs. Conditions: beagles. As for the experimental part: as §3
For series [5], the system named is human constitutive 20S proteasome. Details: method as in PMID 29897236. Conditions: i.e., 1000%; cited from earlier work.
Series [6] has as its system primary cells from a BTZ refractory MM patient. Description: Primary cell viability, CellTiter-Glo, 72 h. Conditions: Homo sapiens.
From the text: White blood cells (WBCs) were separated from red blood cells by the Ficoll density gradient. Multiple myeloma cells were then isolated from WBCs using human CD138 affinity magnetic beads (Miltenyi Biotec; cat#130-093-062; Gaithersburg, MD, USA) following the manufacturer’s protocol. Cells were cryopreserved in 10% DMSO in FBS. Revived cells were maintained in an RPMI medium with 10% FBS for 10 days prior to treatment. […] Cells were equilibrated to RT and CellTiter-Glo (Promega; Madison, WI, USA) solution (100 μL) was added and incubated with shaking for 10 min at RT. The assay plate was then allowed to equilibrate for 5 min at RT and luminescent readings were taken on a SpectraMax® M5. Data are presented as a percentage of the vehicle control for each experimental condition, after background subtraction. Error bars represent SD for triplicate wells.
[7] abbreviates: blood, dogs, 50 mg/kg bid oral capsule.

Where only a bound is given, the exact number is not on record here.

The CC50 is the concentration giving 50% cytotoxicity. Read a low CC50 as greater toxicity to the cells. By Cmax is commonly meant the highest concentration seen after dosing. A word on the Tmax: it is the time at which the peak concentration occurs. What is called AUC is the area under the concentration-time curve, a measure of exposure. For `CCOC(=O)[C@]1(c2ccccc2)N=C(c2ccc(OC)cc2)N(Cc2ccccc2)[C@@H]1c1ccc(NCc2ccccc2)cc1` [TCH-165], the “induction of apoptosis (caspase 3/7 activity)” value in series [1] is “induction of apoptosis”. In addition, the CC50 turned out to be 5 µM in the series with L363 cells, 4.3 µM in the series on NCI-H929 cells and 8.1 µM in series [6]. Besides, the Cmax in series [2] (male, CD-1, mouse, plasma, CD-1 mice, 100 mg/kg oral bid, second dose 8 h after the first, read-out: Cmax following the second dose) is 1430 ± 625 nM; in series [2] (male, CD-1, mouse, plasma, CD-1 mice, 100 mg/kg oral gavage, plasma, read-out: Cmax following the first dose) it was 932 ± 184 nM; in series [3] (setting [7]), 1600 nM; in series [3] (plasma, dogs (n=3), means, 50 mg/kg bid oral) it was 1570 nM. The Tmax in series [2] (male, CD-1, mouse, plasma, CD-1 mice, 100 mg/kg oral bid, second dose 8 h after the first, read-out: Tmax following the second dose) was found to be 12 h; in series [2] (male, CD-1, mouse, plasma, CD-1 mice, 100 mg/kg oral gavage, read-out: Tmax following the first dose), 2 h; in series [3] (setting [7]), 24 h. In addition, the AUC in series [2] (male, CD-1, mouse, plasma, mice, means, 100 mg/kg bid oral, read-out: AUC (nM) (0-16 for mice)) is 14 µM·h; in series [3] (plasma, dogs (n=3), means, 50 mg/kg bid oral, read-out: AUC (nM) (0-24 for dogs)), 19.8 µM·h. Besides, the AUC(0-t) in series [2] (male, mouse, plasma, CD-1 mice, 100 mg/kg oral bid, trapezoidal method, read-out: mean AUC (0–16 h)) was 14 µM·h. The “metabolic lability of the ester moiety (by LC-MS)” value in series [2] (mouse PK study) is recorded as “not metabolically labile”. In series [4] (50 mg/kg bid oral capsule, five consecutive days), the body weight change is recorded as under 1%. Besides, in series [4] (50 mg/kg bid oral capsule, five days), the “clinical observations, body weight, complete blood counts and clinical chemistry panel compared to pre-dose status” value is recorded as “no significant changes”. Moreover, in series [4] (day 5 of administration), the “notable change in the clinical chemistry profile” value is given as “increase in plasma iron concentrations”. In addition, in series [5], the “enhancement of 20S-mediated proteolysis” value was about 10 fold.
